The structures appear in SMILES notation.

Series [1] concerns the target T1, TraR (Agrobacterium tumefaciens, UniProt P33905). Put plainly: TraR antagonism assay in A. tumefaciens WCF. It counts as cell-based. To be noted: 10 μM, in the presence of OOHL.
The format of series [2] is physicochemical. Conditions: Luria-Bertani medium, 37 °C; pseudo first-order.
The conditions of series [3]: over the course of a week; cited from earlier work.
The target in series [4] is T2, LasR (Pseudomonas aeruginosa, UniProt P25084). Put plainly: LasR reporter gene agonism assay in E. coli DH5α. It counts as cell-based. Conditions: E. coli LasR reporter strain. In general terms: In a reporter assay the amount or activity of a reporter protein is the signal.
Series [5] has as its target T2, LasR. Put plainly: LasR reporter gene agonism assay in P. aeruginosa PA01 MW1. It counts as cell-based. To be noted: P. aeruginosa LasR reporter strain.
Series [6] has as its target T1, TraR. It counts as cell-based. Conditions: dose response.
In the next series the test system is immune response. Conditions: mice; cited from earlier work.
The target in series [7] is T2, LasR. Put plainly: LasR reporter gene antagonism assay in E. coli DH5α. It counts as cell-based. To be noted: E. coli reporter strain.
The next series concerns the target LuxR (Aliivibrio fischeri, UniProt P35327). Put plainly: LuxR antagonism assay in V. fischeri ESI 114. It is filed as cell-based, Vibrio fischeri.

T1 sequence (P33905 whole entry): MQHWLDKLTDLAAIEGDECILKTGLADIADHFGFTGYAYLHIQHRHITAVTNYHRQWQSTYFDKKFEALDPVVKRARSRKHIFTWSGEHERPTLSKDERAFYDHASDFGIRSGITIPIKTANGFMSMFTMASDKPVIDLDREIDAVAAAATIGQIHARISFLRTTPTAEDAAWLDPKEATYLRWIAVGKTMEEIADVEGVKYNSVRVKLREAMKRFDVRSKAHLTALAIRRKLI
T2 sequence (P25084 whole entry): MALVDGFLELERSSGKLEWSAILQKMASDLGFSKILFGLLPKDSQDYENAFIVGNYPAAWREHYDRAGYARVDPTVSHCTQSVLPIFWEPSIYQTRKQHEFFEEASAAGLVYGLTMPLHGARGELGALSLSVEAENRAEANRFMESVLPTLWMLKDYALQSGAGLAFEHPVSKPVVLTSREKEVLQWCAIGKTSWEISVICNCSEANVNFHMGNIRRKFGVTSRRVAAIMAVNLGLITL
Sequence of LuxR (P35327 whole entry): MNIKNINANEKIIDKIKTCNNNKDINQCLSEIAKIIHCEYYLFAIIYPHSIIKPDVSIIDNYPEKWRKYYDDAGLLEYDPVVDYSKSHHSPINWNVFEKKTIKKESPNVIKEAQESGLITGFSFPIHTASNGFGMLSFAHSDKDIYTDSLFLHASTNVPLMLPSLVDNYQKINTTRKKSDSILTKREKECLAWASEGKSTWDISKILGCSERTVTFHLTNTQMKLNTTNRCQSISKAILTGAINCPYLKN

For the compound `CCCC(=O)N[C@H]1CCSC1=O` [Compound 19], the “TraR agonism in the antagonism assay (more than OOHL alone)” value (from here on “TraR agonism in the antagonism assay”) on TraR [1] is listed as “over 70%”.

As for `CCCCCCCCCC(=O)CC(=O)N[C@H]1CCOC1=O` [OdDHL, N-(3-oxo)-dodecanoyl HL, reference compound], the “slope of natural log of percent of positive control vs time” value in series [2] is listed as −0.01399 ± 0.0006. For the same compound, in [3], the “racemization of the chiral center” value is on record as “less than 5%”.

Consider `CCCCCC(=O)N[C@H]1CCSC1=O` [Compound 20, N-hexanoyl thiolactone], for which the “TraR agonism in the antagonism assay” value at TraR [1] is “over 70%”.

In the case of `CCCC(=O)CC(=O)N[C@H]1CCSC1=O` [Compound 12], the “EC50 fold higher / fold less active than OdDHL, E. coli LasR” value at LasR [4] is given as ~ 10 fold. For the same compound, at LasR [5], the “EC50 fold higher / fold less active than OdDHL, P. aeruginosa LasR” value is reported as ~ 10 fold.

Take `CCCCCC(=O)CC(=O)N[C@H]1CCSC1=O` [Compound 18]: the “fold less active than OOHL (TraR agonism)” value on TraR [6] is on record as 100 fold.

`COc1ccc(CC(=O)N[C@H]2CCSC2=O)cc1` [Compound 29]: the “agonistic activity in the TraR antagonism assay relative to OOHL” value at TraR [1] was 2 ×.

Regarding `COc1ccc(CC(=O)NC2CCSC2=O)cc1` (stereo not shown) [Compound 28], at TraR [1], the “TraR agonism in the antagonism assay” value amounted to 24%.

As for `CCCCCCCCCC(=O)CC(=O)N[C@H]1CCSC1=O` [Compound 15], in the series with immune response, the “times less of an immune response than the native OdDHL” value is “approximately 40 times”. Besides, the “slope of natural log of percent of positive control vs time” value in [2] is on record as −0.01025 ± 0.0004.

Turning to `CCCCCCCC(=O)N[C@H]1CCSC1=O` [Compound 22, N-octanoyl L-thiolactone], the “fold higher concentration than OdDHL to antagonize LasR by 50%” value at LasR [7] stood at 10 fold. For the same compound, the “fold lower concentration than OHHL to antagonize LuxR by 50%” value at LuxR turned out to be 10 fold.

As to `CCCCCCCCCCCC(=O)N[C@H]1CCSC1=O` [Compound 23, N-dodecanoyl thiolactone], at LasR [4], the “EC50 fold higher / fold less active than OdDHL, E. coli LasR” value was ~ 100 fold. Moreover, at LasR [5], the “EC50 fold higher / fold less active than OdDHL, P. aeruginosa LasR” value is on record as ~ 10 fold.

Regarding `O=C(Cc1ccc(Br)cc1)N[C@H]1CCSC1=O` [Compound 31], the “TraR agonism in the antagonism assay” value at TraR [1] stood at 60%.

The record behind these values is paper PMC3152678 (Bioorganic & medicinal chemistry, 2011).
